Results on five molecules are retold here after PMC5466598, “Synthesis, Chemical Characterization and Multiscale Biological Evaluation of a Dimeric-cRGD Peptide for Targeted Imaging of αVβ3 Integrin Activity” (Scientific Reports, 2017).

Data set [1] is described as follows: Biodistribution by gamma well counting at 90 min post-injection. The class given is in vivo, Lewis rats. The settings on record: Lewis, rat, iv, total radioactivity, 90 min after intravascular injection. The protocol: To assess blood clearance and organ uptake dynamic in vivo PET-CT imaging was performed followed by image processing and analysis. Lewis rats (n = 6, Harlan Inc.) were anesthetized with 2% isoflurane, the neck area was shaved and a jugular vein cut-down procedure was performed to insert a PE-50 […] catheter for radiotracer injection. Animals were then placed in supine position on the polyacrylic imaging bed of a small animal dedicated PET-CT scanner (Inveon, Siemens Healthcare, USA). At the time of PET acquisition, animals were injected with ~22.2 MBq of (7) via the jugular vein catheter over 30 s followed by bolus infusion of 0.2 mL sterile saline. Animals underwent 60 min dynamic PET imaging (15% energy window centered at 511 keV) followed by anatomical X-ray CT imaging (80 keV, 500 μA, 100 μm spatial resolution).
For biodistribution studies, all animals were euthanized at 90 min post-injection and selected organ samples were collected for gamma well counting analysis. All collected sections were weighed and the tissue radioactivity was measured with Wizard^2 gamma well counter (Perkin-Elmer, USA). Measured ^64Cu activity was corrected for background, decay time, and tissue weight.

Data set [2] can be described thus: In vivo stability / metabolism (HPLC of urine and feces). Also noted: species or system Lewis rats. On the procedure:
Following dynamic PET-CT imaging, both urine and feces samples were collected to assess radiotracer’s metabolism and excretion route. The urine samples were collected at 90 min post injection by manual void, mixed at 1:1 ratio (v/v) with 50% CH3 CN and centrifuged at 5000 rpm. The supernatant was collected, analyzed by HPLC (C18 column, flow 1 mL/min, CH3 OH/H2 O, 5/95, v/v), and chromatograms compared to reference samples of (7) and ^64Cu-acetate. Feces samples were collected at 90 min post injection, suspended in 50% CH3 CN, homogenized and centrifuged at 5000 rpm. The supernatant was filtered and analyzed by RP-HPLC.

In another data set the target is α V β 3 receptor. The settings on record: cited from earlier work; for Kd: comparison values quoted in discussion, no reference given, read-out: binding affinity (Kd); for k off: dissociation from α V β 3 receptor.
Data set [3] concerns the target T1, αVβ3 integrin on human umbilical vein endothelial cells (HUVEC) (human (endogenous in HUVEC)), P06756.
T1 chain 1: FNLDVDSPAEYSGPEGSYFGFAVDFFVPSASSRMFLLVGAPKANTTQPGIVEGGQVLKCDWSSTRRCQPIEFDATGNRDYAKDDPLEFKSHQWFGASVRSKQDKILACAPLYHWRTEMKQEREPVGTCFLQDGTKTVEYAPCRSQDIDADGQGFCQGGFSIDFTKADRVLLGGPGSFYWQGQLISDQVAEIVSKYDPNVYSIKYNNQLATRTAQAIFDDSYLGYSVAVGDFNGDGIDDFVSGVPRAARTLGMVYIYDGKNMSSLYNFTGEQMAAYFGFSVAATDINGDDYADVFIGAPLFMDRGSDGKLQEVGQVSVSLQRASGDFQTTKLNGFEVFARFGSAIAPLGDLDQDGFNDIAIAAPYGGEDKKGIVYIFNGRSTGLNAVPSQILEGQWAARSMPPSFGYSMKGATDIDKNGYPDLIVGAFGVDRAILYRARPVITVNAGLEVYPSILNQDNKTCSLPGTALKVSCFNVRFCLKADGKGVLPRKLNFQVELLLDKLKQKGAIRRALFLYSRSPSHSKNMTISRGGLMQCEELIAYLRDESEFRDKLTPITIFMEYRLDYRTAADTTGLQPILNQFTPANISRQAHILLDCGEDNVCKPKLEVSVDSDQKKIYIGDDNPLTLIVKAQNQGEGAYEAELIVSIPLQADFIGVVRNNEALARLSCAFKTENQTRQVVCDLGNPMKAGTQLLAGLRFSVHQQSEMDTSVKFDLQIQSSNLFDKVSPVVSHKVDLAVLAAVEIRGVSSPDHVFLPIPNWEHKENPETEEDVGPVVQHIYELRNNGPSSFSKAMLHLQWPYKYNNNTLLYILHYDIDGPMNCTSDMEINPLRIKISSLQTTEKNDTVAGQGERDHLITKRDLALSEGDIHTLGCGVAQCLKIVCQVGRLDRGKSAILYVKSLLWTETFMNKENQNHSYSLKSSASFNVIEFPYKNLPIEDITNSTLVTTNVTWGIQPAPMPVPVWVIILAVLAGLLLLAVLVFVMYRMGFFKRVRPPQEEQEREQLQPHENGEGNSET
T1 chain 2: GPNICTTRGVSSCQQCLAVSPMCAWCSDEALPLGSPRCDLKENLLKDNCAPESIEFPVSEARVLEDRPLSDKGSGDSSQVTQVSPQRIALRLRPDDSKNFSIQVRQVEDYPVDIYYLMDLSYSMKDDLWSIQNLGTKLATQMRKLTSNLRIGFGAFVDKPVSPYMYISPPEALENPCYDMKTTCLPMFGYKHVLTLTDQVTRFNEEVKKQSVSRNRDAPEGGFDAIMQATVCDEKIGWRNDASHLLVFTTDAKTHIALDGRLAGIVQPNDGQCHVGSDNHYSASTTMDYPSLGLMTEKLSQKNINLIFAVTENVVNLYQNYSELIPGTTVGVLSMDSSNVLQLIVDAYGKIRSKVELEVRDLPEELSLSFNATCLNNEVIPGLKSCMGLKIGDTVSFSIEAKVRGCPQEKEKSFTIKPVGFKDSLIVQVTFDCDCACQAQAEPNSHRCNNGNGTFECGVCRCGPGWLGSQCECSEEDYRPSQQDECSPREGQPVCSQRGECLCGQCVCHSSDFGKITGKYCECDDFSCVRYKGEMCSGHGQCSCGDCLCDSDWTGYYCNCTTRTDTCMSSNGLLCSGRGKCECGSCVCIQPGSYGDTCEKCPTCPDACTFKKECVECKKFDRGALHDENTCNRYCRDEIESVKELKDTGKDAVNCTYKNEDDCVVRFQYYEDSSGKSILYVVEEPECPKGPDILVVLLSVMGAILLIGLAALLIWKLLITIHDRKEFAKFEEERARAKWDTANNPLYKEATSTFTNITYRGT
Description: radioligand binding; HUVEC pretreated with Mn2+ (20 μM) for 10 min, washed, then (7) 0-100 nM for 1 h at room temperature; gamma well counting. The note with it: remark: other sources report otherwise.

Data set [4] has as its target T1, αVβ3 integrin on human umbilical vein …. Description: flow cytometry on cells; HUVEC pretreated with Mn2+ (20 μM) for 10 min, washed, then (8) 0-200 nM for 1 h at room temperature. The settings on record: remark: other sources report otherwise.

Where two headings read alike, the source gives them in different places.

Turning to `N=C(N)NCCC[C@@H]1NC(=O)[C@H](CCCCNC(=O)COCCOCCn2cc(CNC(=O)CC[C@H](NC(=O)CCOCCOCCOCCOCCNC(=S)Nc3ccc(CC4CN(CC(=O)O)CCN(CC(=O)O)CCN4CC(=O)O)cc3)C(=O)NCc3cn(CCOCCOCC(=O)NCCCC[C@@H]4NC(=O)[C@@H](Cc5ccccc5)NC(=O)[C@H](CC(=O)O)NC(=O)CNC(=O)[C@H](CCCNC(=N)N)NC4=O)nn3)nn2)NC(=O)[C@@H](Cc2ccccc2)NC(=O)[C@H](CC(=O)O)NC(=O)CNC1=O` (stereo partly shown) [compound 7], the tissue uptake at […] came out at 4.62 ± 0.24 %ID/g in data set [1] (intestines, read-out: uptake in intestines); 11.1 ± 2.2 %ID/g in data set [1] (kidney cortex, read-out: uptake in kidney cortex); 3.66 ± 0.4 %ID/g in data set [1] (kidney medulla, read-out: uptake in kidney medulla); 2.95 ± 0.43 %ID/g in data set [1] (lungs, read-out: uptake in lungs); 2.25 ± 0.33 %ID/g in data set [1] (spleen, read-out: uptake in spleen). In data set [2] (feces collected at 90 min post injection, RP-HPLC), the “activity in the feces” value is recorded as “no detectable activity”. In addition, the “fraction remaining intact in the urine” value in data set [2] (urine collected at 90 min post injection, HPLC) is “more than 90%”.
Consider fibrinogen, for which, on α V β 3 receptor, the Kd was 27 nM and the k off is 0.00098 s⁻¹.
For the molecule vibronectin: classical adhesive protein, on α V β 3 receptor, the Kd was 64 nM and the k off was 0.00021 s⁻¹.

B1: 64Cu-NOTA-PEG4-cRGD2 (7) (peptide)
chain: cyclo(RGDFK)
modifications: also: cyclic RGD dimer: each peptide via N3-PEG2 triazole on Glu bis-propargyl amide, PEG4, NOTA, 64Cu
Regarding B1, the increase of binding against HUVECs without Mn2+ in data set [3] is 78%.

B2: FITC-PEG4-cRGD2 (8) (peptide)
chain: cyclo(RGDFK)
modifications: also: cyclic RGD dimer: each peptide via N3-PEG2 triazole on Glu bis-propargyl amide, PEG4, fluorescein (from FITC)
As to B2, the increase of binding against HUVECs without Mn2+ in data set [4] was determined as 78%.
